From US20240002379A1, “ASYMMETRIC CONJUGATE COMPOUNDS” (Pheon Therapeutics Ltd., priority 2016, published 2024)
“Also recorded” adds a separate entry of the source. Like-named read-outs stand apart in the source and are kept apart here.

How the values were obtained:
SW48 cell line (gastric) = assay: MTT cytotoxicity assay, SW48; type: cell-based; conditions: MTT assay, 72 hour incubation
Experimental: (§1) Tumor cell lines were maintained in RPMI1640 medium supplemented with 10% heat-inactivated fetal bovine serum, 2 mM L-glutamine and 1 mM sodium pyruvate. 1800 cells per well were seeded in a volume of 180 μl in a 96-well flat bottom polystyrene plate. The cells were allowed to adhere overnight at 37° C. in a CO2 incubator. Ligands were initially formulated in DMSO, and stocks stored at −80° C. They were then further formulated at lox concentration in RPMI1640 medium. 20 ul of diluted samples were added into each treatment well. On each plate, blank wells with no cells, and untreated wells containing cells, were included. Plates were then cultured at 37° C. in a CO2 incubator for 72 hrs. Cytotoxicity was evaluated using a tetrazolium salt-based assay, the MTT assay. After 72 hours, the supernatant was removed from each well and 200 μl of a sterile filtered 500 μg/ml MTT solution in water added to each well. The plates were then incubated at 37° C. in a CO2 incubator for 4 hrs. The supernatant was then removed and the formazan crystals formed solubilized by adding 150 μl of DMSO to each well. The plate was then read on a plate reader at 540 nm, and percentage cell survival calculated as follows: ((mean absorbance treated wells at concentration x−mean absorbance blank wells)[…](mean absorbance untreated wells at concentration x−mean absorbance blank wells))×100. Data were plotted as concentration in nM vs. % cell survival in Microsoft Excel, and IC50 values (concentration where cell survival is reduced by a half) were determined from the graph.

[1] = tested on: LIM1215 cell line (gastric); assay: MTT cytotoxicity assay, LIM1215; type: cell-based; conditions: MTT assay, 72 hour incubation, read-out: Cytotoxicity LIM1215 (72 hours)
Experimental: as §1

[2] = tested on: SW620 cell line (gastric); assay: MTT cytotoxicity assay, SW620; type: cell-based; conditions: MTT assay, 72 hour incubation, read-out: Cytotoxicity SW620 (72 hours)
Experimental: as §1

[3] = tested on: FaDu (head and neck cancer) cell line; assay: MTT cytotoxicity assay, FaDu; type: cell-based; conditions: Homo sapiens, read-out: Cytotoxicity FaDu (nM, 72 hour)
Experimental: as §1

PC3 (prostate) cell line = assay: MTT cytotoxicity assay, PC3; type: cell-based; conditions: read-out: Cytotoxicity PC3 (nM, 72 hour)
Experimental: as §1

[4] = tested on: three fluorescently labelled DNA sequences shown in FIG. 17; assay: FRET DNA melting, the three DNA sequences shown in FIG. 17 together; type: binding; conditions: for effect on melting temperature / DNA stabilisation: different concentrations, all three sequences, vs control DNA
From the text: Further FRET DNA melting studies were undertaken on a number of molecules using three fluorescently labelled sequences. The sequences (FIG. 17) were designed to provide additional evidence that the series can form inter- and intrastrand cross-links. Inosines were inserted in place of traditional DNA bases in some cases to limit the number of binding sites available for the compounds to interact with. The short duplexes used in this FRET study are relatively unstable in the duplex form with a melting temperature below 30° C. so that, in the absence of ligand, a large part of the melting occurs below the starting temperature of the experiment. […] Increasing concentrations of 13 cause a greater amount of the melting transition to appear at the higher temperature (i.e. a greater number of the DNA molecules are cross-linked). A greater effect for 5′-AIIAGAITTTI′-3′ can be observed at lower concentrations of 13.
Oligonucleotides were obtained from ATDbio (Southampton, UK) in lyophilised form. They were labelled with a fluorophore molecule (F=fluorescein) at the 5′-end and a quencher molecule (Q=dabcyl) at the 3′-end of the complementary strand. Each oligonucleotide was dissolved in distilled H2O to form stock solutions of 100 PM. Working solutions of 5 μM were prepared by diluting the stock solution with distilled H2O.
The following buffers were used: 250 mM phosphate buffer pH 7.4 (consisting of sodium dihydrogen phosphate and sodium phosphate diluted in distilled H2O) and 5 M sodium chloride buffer. A11 buffers and distilled H2O were filtered through a […] filter prior to use.
For the FRET experiments a stock solutions were prepared by dissolving compound (such as compound 13) in DMSO to give a concentration of 10 mM. From this stock solution, working solutions of the desired concentration were prepared by diluting the stock solution with distilled H2O.
The reaction mixture was comprised of 4 μL of 250 mM phosphate buffer (final concentration of 50 mM), 4 μL flourophor and 4 μL quencher molecule of the appropriate oligonucleotide for a final concentration of 0.2 PM, 4 μL 5 M sodium chloride (final concentration of 1 M NaCl), and 4 μL of distilled H2O. This mixture was heated in an Eppendorf tube at 90° C. for 1 min and slowly cooled down to room temperature. This process was carried out to anneal the single strands to double-stranded DNA. Following this, 4 μL of the ligand was added in the desired concentration and the mixture incubated overnight either at room temperature or 4° C. A control sample of DNA only was prepared by mixing 4 μL 250 mM phosphate buffer (final concentration of 50 mM) with 4 μL fluorophore-labelled and 4 μL quencher-labelled oligonucleotides (of the appropriate sequence) to give a final concentration of 0.2 PM, 4 μL 5 M sodium chloride (final concentration of 1 M NaCl) and 4 μL distilled H2O. This mixture was analysed without prior annealing.
Fluorescence melting profiles were measured using a Roche LightCycler using a total reaction volume of 20 μL. Initially, the samples were denatured by heating to 95° C. at a rate of 1° C. min^−1. The samples were then maintained at 95° C. for 5 min before annealing by cooling to 25° C. at 1° C. min^−1. The samples were then held at 25° C. for a further 5 min and finally melted by heating to 95° C. at 1° C. min^−1. Annealing steps and melting steps were all recorded and changes in fluorescence were measured at 520 nm.
Tm values were obtained from the first derivates of the melting profiles using the Roche LightCycler software.

[5] = Homo sapiens, SW48, read-out: Cytotoxicity SW48 (72 hrs)

Row | Compound | IC50 (SW48 cell line (gastric); [5]) | IC50 ([1]; LIM1215) | IC50 ([2]; Homo sapiens, SW-620) | effect on melting temperature / DNA stabilisation [4] | other results
1 | CC(C)(C)OC(=O)N1C[C@@H](CCl)c2c1cc(O)c1ccccc21 [Compound 10, tert-Butyl (S)-1-(chloromethyl)-5-hydroxy-1,2-dihydro-3H-benzo[e]indole-3-carboxylate] | 2920 nM | 1270 nM | 2000 nM |  | 
2 | COc1cc2c(cc1OCCCCCC(=O)N1C[C@@H](CCl)c3c1cc(O)c1ccccc31)N=C[C@@H]1CCCCN1C2=O [Compound 24, (S)-3-((6-((S)-1-(Chloromethyl)-5-hydroxy-1,2-dihydro-3H-benzo[e]indol-3-yl)-6-oxohexyl)oxy)-2-methoxy-7,8,9,10-tetrahydrobenzo-[e]pyrido[1,2-a][1,4]diazepin-12(6aH)-one] |  |  |  |  | IC50 ([3]; MTT assay, 72 hour incubation): 1.83 nM; IC50 (PC3 (prostate) cell line; MTT assay, 72 hour incubation): 0.12 nM
3 | COc1cc2c(cc1OCCCC(=O)N1C[C@@H](CCl)c3c1cc(O)c1ccccc31)N=C[C@@H]1Cc3ccccc3CN1C2=O [Compound 53, (S)-3-(4-((S)-1-(Chloromethyl)-5-hydroxy-1,2-dihydro-3H-benzo[e]indol-3-yl)-4-oxobutoxy)-2-methoxy-7,12-dihydrobenzo[5,6][1,4]-diazepino[1,2-b]isoquinolin-14(6aH)-one] |  |  |  |  | IC50 ([3]; MTT assay, 72 hour incubation): 0.65 nM; IC50 (PC3 (prostate) cell line; MTT assay, 72 hour incubation): 0.02 nM
4 | COc1cc2c(cc1OCCCC(=O)N1C[C@@H](CCl)c3c1cc(OC(=O)N1CCN(C)CC1)c1ccccc31)N=C[C@@H]1CCCCN1C2=O [Compound 55, (S)-1-(Chloromethyl)-3-(4-(((S)-2-methoxy-12-oxo-6a,7,8,9,10, 12-hexahydrobenzo[e]pyrido[1,2-a][1,4]diazepin-3-yl)oxy)butanoyl)-2,3-dihydro-1H-benzo[e]indol-5-yl 4-methylpiperazine-1-carboxylate] |  |  |  |  | IC50 ([3]; 72 h): 1.5 nM; IC50 (PC3 (prostate) cell line; 72 h): 0.02 nM
5 | CC(C)(C)OC(=O)N1CC2CC23C1=CC(=O)c1ccccc13 [Compound 83, tert-Butyl (8bR,9aS)-4-oxo-9,9a-dihydro-1H-benzo[e]cyclopropa[c]indole-2(4H)-carboxylate] |  |  |  | do not increase | degree of DNA stabilisation ([4]; middle sequence and bottom sequence in FIG. 17 (both AT-rich)): very small degree of stabilisation; IC50 (SW48 cell line (gastric); read-out: Cytotoxicity SW48 (72 hrs)): 4390 nM; IC50 [1]: 2890 nM; IC50 [2]: 3510 nM
6 | COc1cc2c(cc1OCc1c(C(=O)N3C[C@@H](CCl)c4c3cc(O)c3ccccc43)sc3ccccc13)N=C[C@@H]1CCCCN1C2=O [Compound 91, (S)-3-((2-((S)-1-(Chloromethyl)-5-hydroxy-2,3-dihydro-1H-benzo[e]indole-3-carbonyl)benzo[b]thiophen-3-yl)methoxy)-2-methoxy-7,8,9,10-tetrahydrobenzo[e]pyrido[1,2-a][1,4]diazepin-12(6aH)-one] | 2320 nM | 2210 nM | 2610 nM |  | 
7 | COc1cc2c(cc1OCc1cccc(CC(=O)N3C[C@@H](CCl)c4c3cc(O)c3ccccc43)c1)N=C[C@@H]1Cc3ccccc3CN1C2=O [Compound 108, (S)-3-((3-(2-((S)-1-(Chloromethyl)-5-hydroxy-1,2-dihydro-3H-benzo[e]indol-3-yl)-2-oxoethyl)benzyl)oxy)-2-methoxy-7,12-dihydrobenzo[5,6][1,4]diazepino[1,2-b]isoquinolin-14(6aH)-one] |  | 0.78 nM | 0.045 nM |  | IC50 (SW48 cell line (gastric); Homo sapiens, SW48, read-out: IC50 value in SW48): 0.004 nM
8 | COc1cc2c(cc1OCc1cccc(CC(=O)N3C[C@@H](CCl)c4c3cc(O)c3ccccc43)c1)NC(=O)[C@@H]1CCCCN1C2=O [Compound 139, (S)-3-((3-(2-((S)-1-(Chloromethyl)-5-hydroxy-1,2-dihydro-3H-benzo[e]indol-3-yl)-2-oxoethyl)benzyl)oxy)-2-methoxy-7,8,9,10-tetrahydrobenzo[e]pyrido[1,2-a][1,4]diazepine-6,12(5H,6aH)-dione] | 0.95 nM | 12 nM | 13.5 nM |  | 
9 | COc1cc2c(cc1OCc1cccc(CC(=O)N3C[C@@H](C)c4c3cc(O)c3ccccc43)c1)N=C[C@@H]1CCCCN1C2=O [Compound 145, (S)-3-((3-(2-((S)-5-Hydroxy-1-methyl-1,2-dihydro-3H-benzo[e]indol-3-yl)-2-oxoethyl)benzyl)oxy)-2-methoxy-7,8,9,10-tetrahydrobenzo[e]pyrido[1,2-a][1,4]diazepin-12(6aH)-one] | 32.1 nM | 137 nM | 350 nM |  | 
10 | COc1cc2c(cc1OCCCC(=O)N1C[C@@H](CCl)c3c1cc(O)c1ccccc31)NC(=O)[C@@H]1CCCCN1C2=O [Compound 149, (S)-3-(4-((S)-1-(Chloromethyl)-5-hydroxy-1,2-dihydro-3H-benzo[e]indol-3-yl)-4-oxobutoxy)-2-methoxy-7,8,9,10-tetrahydrobenzo[e]-pyrido[1,2-a][1,4]diazepine-6,12(5H,6aH)-dione] |  |  |  | limited increase | 
11 | COc1cc2c(cc1OCCCC(=O)N1C[C@@H](CCl)c3c1cc(OC(=O)N1CCN(C)CC1)c1ccccc31)NC(=O)[C@@H]1CCCCN1C2=O [Compound 150, (S)-1-(Chloromethyl)-3-(4-(((S)-2-methoxy-6,12-dioxo-5,6,6a,7,8,9,10,12-octahydrobenzo[e]pyrido[1,2-a][1,4]diazepin-3-yl)oxy)butanoyl)-2,3-dihydro-1H-benzo[e]indol-5-yl 4-methylpiperazine-1-carboxylate] |  |  |  | negligible DNA stabilisation; also recorded: do not increase | 
12 | COc1cc2c(cc1OCCCC(=O)N1C[C@@H](C)c3c1cc(O)c1ccccc31)N=C[C@@H]1CCCCN1C2=O [Compound 152, (S)-3-(4-((S)—S-Hydroxy-1-methyl-1,2-dihydro-3H-benzo[e]indol-3-yl)-4-oxobutoxy)-2-methoxy-7,8,9,10-tetrahydrobenzo[e]pyrido[1,2-a][1,4]diazepin-12(6aH)-one] |  |  |  | limited increase | ΔTm compared to the active G-A cross-linker 42 ([4]; three sequences of FIG. 17): large decrease in the ΔTm value
